Experimental data taken from PubChem BioAssay (NCI).
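96-well plates; 48 h exposure; 5 concentrations. Endpoints by linear interpolation between flanking doses. Not reached: highest tested concentration assigned. Here, GI50 denotes the concentration required for 50% inhibition of growth. TGI marks complete inhibition of growth.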

How the values were obtained:
Assay in all cases: NCI-60 cell line screen, 48 h
OVCAR-5 ovarian = tested on: OVCAR-5 ovarian
M14 melanoma = tested on: M14 melanoma
NCI-H460 lung = tested on: NCI-H460 lung
HOP-62 NSCLC = tested on: HOP-62 NSCLC
HOP-92 NSCLC = tested on: HOP-92 NSCLC
SF-539 CNS = tested on: SF-539 CNS
SF-268 CNS = tested on: SF-268 CNS
SK-MEL-2 melanoma = tested on: SK-MEL-2 melanoma
LOX IMVI melanoma = tested on: LOX IMVI melanoma

Row | Structure (SMILES) | TGI (OVCAR-5 ovarian) | TGI (M14 melanoma) | TGI (NCI-H460 lung) | TGI (HOP-62 NSCLC) | TGI (HOP-92 NSCLC) | TGI (SF-539 CNS) | TGI (SF-268 CNS) | TGI (SK-MEL-2 melanoma) | TGI (LOX IMVI melanoma) | GI50 (OVCAR-5 ovarian) | GI50 (M14 melanoma) | GI50 (NCI-H460 lung) | GI50 (HOP-62 NSCLC) | GI50 (HOP-92 NSCLC) | GI50 (SF-539 CNS) | GI50 (SF-268 CNS) | GI50 (LOX IMVI melanoma)
1 | O=C1CCC2(c3ccccc3)Nc3ccccc3N12 (configuration not stated) | > 100 µM | > 100 µM | > 100 µM | > 100 µM | > 100 µM | > 100 µM | > 100 µM | > 100 µM | > 100 µM | – | – | – | – | – | – | – | –
2 | C=C1C(=O)C23[C@H](O)C1CC[C@H]2[C@]12COC3(O)[C@@H](O)[C@@H]1C(C)(C)CC[C@@H]2O | 32.7 µM | 18.5 µM | 30.7 µM | 36.1 µM | 10.1 µM | 22.6 µM | 18.3 µM | 11 µM | 33.3 µM | – | – | – | – | – | – | – | –
3 | COc1ccccc1-c1cc(=O)c2cc(C)c(C)c(C(=O)O)c2o1 | > 100 µM | > 100 µM | > 100 µM | > 100 µM | > 100 µM | > 100 µM | > 100 µM | > 100 µM | > 100 µM | – | – | – | – | – | – | – | –
4 | OC1=CN=COc2ccccc21 | – | > 100 µM | > 100 µM | > 100 µM | > 100 µM | > 100 µM | > 100 µM | > 100 µM | > 100 µM | – | – | – | – | – | – | – | –
5 | CC1(C)COC2C(N(Cc3ccccc3)Cc3ccccc3)C(=O)N21 (configuration not stated) | > 100 µM | 56.2 µM | > 100 µM | > 100 µM | 80.5 µM | 69.8 µM | 82.1 µM | – | > 100 µM | – | – | – | – | – | – | – | –
6 | CN(C)c1ccc(/C=C(\NC(=O)c2ccccc2)c2nc3ccc4c(c3[nH]2)C(=O)c2ccccc2C4=O)cc1 | > 100 µM | > 100 µM | > 100 µM | > 100 µM | 97.3 µM | > 100 µM | > 100 µM | > 100 µM | > 100 µM | – | – | – | – | – | – | – | –
7 | C#CCN(N=O)C(=O)ON1C(=O)CCC1=O | > 100 µM | > 100 µM | > 100 µM | > 100 µM | > 100 µM | > 100 µM | > 100 µM | > 100 µM | > 100 µM | – | – | – | – | – | – | – | –
8 | COc1cc2c(c3c1c(=O)c1ccccc1n3C)C=CC(C)(C)O2 | > 100 µM | > 100 µM | > 100 µM | > 100 µM | > 100 µM | > 100 µM | > 100 µM | > 100 µM | > 100 µM | – | – | – | – | – | – | – | –
9 | COC/N=C(\NC#N)NCOC | > 100 µM | > 100 µM | > 100 µM | > 100 µM | > 100 µM | > 100 µM | > 100 µM | > 100 µM | > 95.8 µM | – | – | – | – | – | – | – | –
10 | CCOc1ccc(N=C(NC(=O)c2ccccc2)SC)cc1 | > 100 µM | > 100 µM | > 100 µM | > 100 µM | > 100 µM | > 100 µM | > 100 µM | > 100 µM | > 100 µM | – | – | – | – | – | – | – | –
11 | CCCC(=O)N[C@H]1CCc2cc(OC)c(OC)c(OC)c2-c2ccc(SC)c(=O)cc21 | > 100 µM | 34.7 µM | 0.0522 µM | > 91.2 µM | 2.51 µM | < 0.01 µM | 62.7 µM | – | > 100 µM | – | – | – | – | – | – | – | –
12 | CC1CC2(S(=O)(=O)c3ccccc3)ON1CC2S(=O)(=O)c1ccccc1 (configuration not stated) | > 100 µM | > 100 µM | > 100 µM | > 100 µM | – | > 100 µM | > 100 µM | > 100 µM | > 100 µM | – | – | – | – | – | – | – | –
13 | CN(C)C(=S)/N=c1\ssc(=S)n1C | > 100 µM | > 100 µM | > 100 µM | > 100 µM | > 100 µM | > 100 µM | > 100 µM | > 100 µM | – | – | – | – | – | – | – | – | –
14 | CC1=Nc2ccccc2SC(c2c(Cl)cccc2Cl)C1 (configuration not stated) | 4.08 µM | 3.07 µM | 3.26 µM | 3.76 µM | 3.62 µM | 2.72 µM | 2.73 µM | – | 1.04 µM | – | – | – | – | – | – | – | –
15 | C[N+](C)(C)CC1CCCCC1=O (configuration not stated) | – | 30.2 µM | > 100 µM | > 100 µM | – | > 100 µM | – | – | 27.5 µM | – | – | – | – | – | – | – | –
16 | N=c1c2ccccc2sc2nc3ccccc3n12 | > 100 µM | – | > 100 µM | > 100 µM | > 100 µM | > 100 µM | > 100 µM | > 100 µM | > 100 µM | – | – | – | – | – | – | – | –
17 | O=C1c2ccccc2C(=O)C12CCc1ccccc12 | – | > 100 µM | > 100 µM | > 100 µM | > 100 µM | – | > 100 µM | – | > 100 µM | – | – | – | – | – | – | – | –
18 | COC(=O)c1cc(=O)nc2cc3cccccc3n12 | > 100 µM | > 100 µM | > 100 µM | > 100 µM | – | > 100 µM | – | – | > 100 µM | – | – | – | – | – | – | – | –
19 | CCC1=CCN(c2cc(C)ccn2)OC1c1ccccc1 (configuration not stated) | > 100 µM | > 100 µM | > 100 µM | > 100 µM | – | > 100 µM | > 100 µM | 43.7 µM | > 100 µM | – | – | – | – | – | – | – | –
20 | CC(=O)OC(C(=O)[O][Sn]([CH3])([CH3])[CH3])c1ccccc1 (configuration not stated) | > 100 µM | > 100 µM | > 100 µM | > 100 µM | > 100 µM | > 100 µM | > 100 µM | – | > 100 µM | > 100 µM | > 100 µM | > 100 µM | > 100 µM | > 100 µM | > 100 µM | > 100 µM | > 100 µM
21 | CCOc1ccc(N=C2NC(=O)C(CC(=O)Nc3ccccc3[N+](=O)[O-])S2)cc1 (configuration not stated) | > 100 µM | > 100 µM | > 100 µM | – | > 100 µM | > 100 µM | > 100 µM | > 100 µM | > 100 µM | – | – | – | – | – | – | – | –
